Molecules are shown by their SMILES.

Series [1] has as its target recombinant BACE1 protein (Homo sapiens, UniProt P56817). Briefly: Biochemical FRET based assay. To be noted: recombinant BACE1 1 μg/ml, 120 minutes at room temperature, pH 5.0; for IC50: read-out: Biochemical FRET based assay pIC50 (converted). The procedure, abridged: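 Recombinant BACE1 (1 μg/ml final) was incubated 120 minutes at room temperature with […] Mca/Dnp-labelled 13-mer APP Swedish-mutant peptide in 40 mM citrate pH 5.0, 0.04% PEG, 4% DMSO, with or without compound. Cleavage was measured as fluorescence (ex 320/em 405 nm), given as RFU difference between T120 and T0.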

For a further series, the system named is Abeta total. Briefly: Cellular αLisa assay in SKNBE2 cells, Abeta total. It counts as cell-based, human. To be noted: incubated for 18 hours; for IC50: Homo sapiens, SKNBE2, 18 h, read-out: Cellular αLisa assay in SKNBE2 cells Abetatotal pIC50 (converted). The method, boiled down: (§1)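 Human neuroblastoma SKNBE2 cells expressing wild-type hAPP695 were incubated with compound for 18 hours. Secreted Abeta total and Abeta 1-42 in medium were quantified by sandwich αLisa: biotinylated AbN/25 on streptavidin donor beads with Ab4G8 (total) or cAb42/26 (1-42) acceptor beads. Light emission read after 1 hour (ex 650 nm, em 615 nm).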

The subject of another series is Abeta 1-42. Briefly: Cellular αLisa assay in SKNBE2 cells, Abeta 1-42. The note with it: incubated for 18 hours; for IC50: Homo sapiens, SKNBE2, 18 h, read-out: Cellular αLisa assay in SKNBE2 cells Abeta 42 pIC50 (converted). The class given is cell-based, human. The procedure, abridged:
as §1

The target in the next series is T1, P-gp (Homo sapiens, UniProt P08183).
T1 construct: expressed in transfected cells; host or cells: LLC-PK1 cells stably transduced with MDR1 (LLC-MDR1)
T1 sequence (P08183 whole entry): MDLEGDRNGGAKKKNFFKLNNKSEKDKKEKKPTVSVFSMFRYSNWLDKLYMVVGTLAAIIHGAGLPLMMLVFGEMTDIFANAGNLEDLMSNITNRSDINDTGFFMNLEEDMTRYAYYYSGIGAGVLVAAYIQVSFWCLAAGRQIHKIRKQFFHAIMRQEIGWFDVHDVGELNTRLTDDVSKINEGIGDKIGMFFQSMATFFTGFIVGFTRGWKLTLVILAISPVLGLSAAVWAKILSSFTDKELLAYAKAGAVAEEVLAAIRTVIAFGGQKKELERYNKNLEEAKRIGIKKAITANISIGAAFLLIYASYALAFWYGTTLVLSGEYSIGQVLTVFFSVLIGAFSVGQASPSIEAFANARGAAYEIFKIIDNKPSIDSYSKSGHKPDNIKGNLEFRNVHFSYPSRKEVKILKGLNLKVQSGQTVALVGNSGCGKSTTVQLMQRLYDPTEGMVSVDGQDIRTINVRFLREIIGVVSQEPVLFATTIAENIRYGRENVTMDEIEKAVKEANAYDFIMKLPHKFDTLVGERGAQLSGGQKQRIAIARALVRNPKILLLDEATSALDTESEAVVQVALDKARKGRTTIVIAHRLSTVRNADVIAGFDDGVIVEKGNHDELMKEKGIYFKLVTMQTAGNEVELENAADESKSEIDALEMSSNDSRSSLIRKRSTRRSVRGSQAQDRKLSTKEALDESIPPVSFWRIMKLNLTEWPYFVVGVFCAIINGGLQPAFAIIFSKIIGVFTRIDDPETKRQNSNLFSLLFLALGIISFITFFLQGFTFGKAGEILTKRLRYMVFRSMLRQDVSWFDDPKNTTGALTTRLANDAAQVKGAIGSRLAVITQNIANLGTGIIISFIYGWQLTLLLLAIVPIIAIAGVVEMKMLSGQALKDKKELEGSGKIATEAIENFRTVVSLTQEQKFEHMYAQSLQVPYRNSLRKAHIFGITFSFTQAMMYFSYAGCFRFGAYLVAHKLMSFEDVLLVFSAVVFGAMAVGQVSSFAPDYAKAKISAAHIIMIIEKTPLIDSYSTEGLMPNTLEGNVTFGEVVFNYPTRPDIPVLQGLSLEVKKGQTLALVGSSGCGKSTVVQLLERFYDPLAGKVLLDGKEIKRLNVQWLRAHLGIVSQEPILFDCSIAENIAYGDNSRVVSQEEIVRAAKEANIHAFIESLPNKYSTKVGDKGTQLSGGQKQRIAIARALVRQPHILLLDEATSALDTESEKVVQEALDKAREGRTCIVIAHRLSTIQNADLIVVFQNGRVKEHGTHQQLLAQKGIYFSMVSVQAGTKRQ
Briefly: Transepithelial transport of test compounds through LLC-MDR1 monolayers. It counts as in vitro ADME. The note with it: for efflux ratio at 120 min, 1 μM / Papp A→B at 120 min, 1 μM / Papp B→A at 120 min, 1 μM: pig, LLC-PK1; for efflux ratio at 120 min, 1 μM: read-out: BA/AB; for Papp A→B at 120 min, 1 μM: read-out: A to B (Apparent Permeability, Papp); for Papp B→A at 120 min, 1 μM: read-out: B to A (Apparent Permeability, Papp); for A to B (Apparent Permeability, Papp) / B to A (Apparent Permeability, Papp): 1 μM test compound, 120 minutes; for A to B (Apparent Permeability, Papp): apical to basolateral, absence of GF120918; for B to A (Apparent Permeability, Papp): basolateral to apical. The protocol: Brief Assay Description for the Measurement of Transepithelial Transport of Test Compounds Through LLC-MDR1 Monolayers
The purpose of this assay was to assess both the in vitro passive permeability of test compounds and their ability to be transported substrates of P-gp using LLC-PK1 cells stably transduced with MDR1 in a trans-well system. The positive control for transport was ^3H-digoxin (30 nM) and the positive control inhibitor was GF120918 (5 μM). The marker compound for low permeability was ^14C-Mannitol (1 μM). The test compound concentration was 1 μM.
The integrity of the cellular monolayer was assessed in each incubation well through the inclusion of the fluorescent, low permeability marker compound, Fluorescein.
In detail, LLC-MDR1 cells were seeded on 24-well cell culture inserts (Millicell®-PCF, 0.4 μm, 13 mm diameter, 0.7 cm^2) at 400,000 cells/cm^2. Cell culture medium consisted of Medium 199 supplemented with 10% Foetal Bovine Serum (FBS) and 100 U/ml Penicillin/streptomycin and was replaced the day after seeding and the day before the experiment. The transport experiment was performed 5 days after seeding. On the day of the experiment, solutions of the test compounds were applied to the apical or basolateral side of the monolayers to assess transport in the A to B and B to A directions, respectively. The medium used in the assay was (OPTI-MEM (1×) (GIBCO) with 1 w/v % Bovine Serum Albumin. Inserts were incubated at 37° C. in a humidified incubator containing 5% CO2. Samples from the acceptor and donor compartments were collected after an incubation time of 120 min, to assess the permeability and to allow estimation of the test compound recovery during the experiment, respectively. Transport experiments were performed in triplicate. Absolute test compound concentrations were measured using LC-MS/MS and quantified via a calibration curve.

[2] abbreviates: LLC-MDR1 monolayers, ratio of B to A and A to B permeation rates.

recombinant BACE1 protein, sequence (P56817 46-501): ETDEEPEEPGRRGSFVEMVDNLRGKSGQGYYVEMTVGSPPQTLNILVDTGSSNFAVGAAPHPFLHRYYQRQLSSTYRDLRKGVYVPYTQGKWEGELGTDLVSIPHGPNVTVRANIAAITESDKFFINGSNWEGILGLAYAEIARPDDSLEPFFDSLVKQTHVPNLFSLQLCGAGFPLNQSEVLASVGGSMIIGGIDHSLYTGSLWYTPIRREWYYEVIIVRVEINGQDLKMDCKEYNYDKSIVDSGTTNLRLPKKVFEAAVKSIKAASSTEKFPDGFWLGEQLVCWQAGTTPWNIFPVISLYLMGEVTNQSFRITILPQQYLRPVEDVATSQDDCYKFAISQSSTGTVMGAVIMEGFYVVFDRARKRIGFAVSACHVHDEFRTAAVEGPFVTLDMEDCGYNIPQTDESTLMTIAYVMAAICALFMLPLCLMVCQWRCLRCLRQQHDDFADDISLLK

What is called melting point is the temperature of the solid-liquid transition. Take `COc1cncc(-c2cccc(C3(C)COCC(N)=N3)c2)c1` (racemic) [Compound 4, rac-5-[3-(5-methoxypyridin-3-yl)phenyl]-5-methyl-5,6-dihydro-2H-1,4-oxazin-3-amine]: the melting point was determined as 150 °C. Besides, in series [1], the IC50 is 3640 nM. Moreover, the IC50 in the series with Abeta total was 219 nM. Moreover, the IC50 with Abeta 1-42 was 257 nM. On P-gp (setting [2]), the efflux ratio at 120 min, 1 μM amounted to 25.9.

A word on the Papp A→B: it is the apparent permeability from the apical to the basolateral side of a cell layer. As a reminder, the Papp B→A is how fast a substance crosses the layer from the basolateral side. `COc1cncc(-c2cccc(C3(C)N=C(N)COC3F)c2)c1` (single isomer, unassigned) [Compound 93]: in series [1], the IC50 is 468 nM. In the series on Abeta total, the “Cellular αLisa assay in SKNBE2 cells Abetatotal pIC50” value came out at 6.97. Moreover, the “Cellular αLisa assay in SKNBE2 cells Abeta 42 pIC50” value in the series with Abeta 1-42 was determined as 6.98. Also, the efflux ratio at 120 min, 1 μM on P-gp (setting [2]) amounted to 4.6. Besides, at P-gp, the Papp A→B at 120 min, 1 μM is 7.4 ×10⁻⁶ cm/s and the Papp B→A at 120 min, 1 μM was determined as 34.3 ×10⁻⁶ cm/s.

Consider `CC1(c2cc(-c3cncnc3)ccc2F)N=C(N)COC1C(F)(F)F` (single isomer, unassigned) [Compound 106], for which the melting point came to 173.8 °C. Moreover, in series [1], the IC50 is 4370 nM. In the series with Abeta total, the “Cellular αLisa assay in SKNBE2 cells Abetatotal pIC50” value is 6.23. Moreover, in the series with Abeta 1-42, the “Cellular αLisa assay in SKNBE2 cells Abeta 42 pIC50” value is reported as 6.2. In addition, on P-gp (setting [2]), the efflux ratio at 120 min, 1 μM turned out to be 1.1. Moreover, on P-gp, the Papp A→B at 120 min, 1 μM turned out to be 18.2 ×10⁻⁶ cm/s and the Papp B→A at 120 min, 1 μM turned out to be 19.8 ×10⁻⁶ cm/s.

For `CC1(c2cccc(NC(=O)c3ccc(Cl)cn3)c2)N=C(N)COC1(F)C(F)(F)F` (single isomer, unassigned) [Compound 113], in the series on Abeta total, the “Cellular αLisa assay in SKNBE2 cells Abetatotal pIC50” value amounted to 7.52. The “Cellular αLisa assay in SKNBE2 cells Abeta 42 pIC50” value in the series on Abeta 1-42 is reported as 7.53. Besides, on P-gp, the Papp A→B at 120 min, 1 μM was found to be 9 ×10⁻⁶ cm/s and the Papp B→A at 120 min, 1 μM was 9.8 ×10⁻⁶ cm/s.

With `COc1cncc(-c2cccc(C3(C)N=C(N)COC3(F)C(F)(F)F)c2)c1` (single isomer, unassigned) [Compound 118], the IC50 in series [1] was 191 nM. Moreover, the “Cellular αLisa assay in SKNBE2 cells Abetatotal pIC50” value with Abeta total is listed as 7.18. In addition, in the series on Abeta 1-42, the “Cellular αLisa assay in SKNBE2 cells Abeta 42 pIC50” value is given as 7.23. For the same molecule, the efflux ratio at 120 min, 1 μM on P-gp (setting [2]) was found to be 1.3. In addition, at P-gp, the Papp A→B at 120 min, 1 μM was determined as 12 ×10⁻⁶ cm/s and the Papp B→A at 120 min, 1 μM was 15 ×10⁻⁶ cm/s.

Turning to `COc1cnc(C(=O)Nc2ccc(F)c([C@]3(C)COCC(N)=N3)c2)cn1` [Compound 39], the “Cellular αLisa assay in SKNBE2 cells Abetatotal pIC50” value in the series with Abeta total stood at 8.38. Also, in the series with Abeta 1-42, the “Cellular αLisa assay in SKNBE2 cells Abeta 42 pIC50” value came to 8.27. At P-gp (LLC-MDR1 monolayers), the “A to B (Apparent Permeability, Papp)” value was determined as 3.7 ×10⁻⁶ cm/s and the “B to A (Apparent Permeability, Papp)” value came out at 34.2 ×10⁻⁶ cm/s.

On to `C[C@@]1(c2cc(NC(=O)c3ccc(C#N)cn3)ccc2F)COCC(N)=N1` [Compound 43], for which the “Biochemical FRET based assay pIC50” value in series [1] worked out at 7.14. The “Cellular αLisa assay in SKNBE2 cells Abetatotal pIC50” value in the series with Abeta total was 8.45. For the same molecule, in the series on Abeta 1-42, the “Cellular αLisa assay in SKNBE2 cells Abeta 42 pIC50” value was found to be 8.34. Further, on P-gp (LLC-MDR1 monolayers), the “A to B (Apparent Permeability, Papp)” value amounted to 1.4 ×10⁻⁶ cm/s and the “B to A (Apparent Permeability, Papp)” value was 26.6 ×10⁻⁶ cm/s. In addition, the BA/AB on P-gp (setting [2]) is listed as 18.5.

In turn, `COc1cncc(-c2cccc(C3(C)N=C(N)COC3F)c2)c1` (stereo not drawn) [Compound 100] came in with a melting point of 139.2 °C. Also, the IC50 in series [1] is 1550 nM. For the same molecule, the IC50 with Abeta total was 339 nM. Moreover, the IC50 with Abeta 1-42 is 347 nM. Also, the efflux ratio at 120 min, 1 μM on P-gp (setting [2]) was 3.6. Moreover, on P-gp, the Papp A→B at 120 min, 1 μM stood at 7.6 ×10⁻⁶ cm/s and the Papp B→A at 120 min, 1 μM came out at 27.4 ×10⁻⁶ cm/s.

The molecule `N#Cc1ccc(C(=O)Nc2ccc(F)c([C@@]3(C4CC4)N=C(N)CO[C@H]3C(F)(F)F)c2)nc1` [Compound 229, (2R,3R)—N-{3-[5-amino-3-cyclopropyl-2-(trifluoromethyl)-3,6-dihydro-2H-1,4-oxazin-3-yl]-4-fluorophenyl}-5-cyanopyridine-2-carboxamide] gave a melting point of 181.79 °C. For the same molecule, the IC50 in series [1] is 44.7 nM. Moreover, the IC50 with Abeta total was 14.5 nM. The IC50 in the series with Abeta 1-42 is 14.1 nM.

Consider `C[C@]1(c2cc(-c3cncnc3)c(F)cc2F)N=C(N)CO[C@H]1C(F)(F)F` [Compound 254], for which the melting point was 101.3 °C. Moreover, the IC50 in series [1] was 851 nM. Besides, the IC50 with Abeta total is 316 nM. Also, the IC50 in the series on Abeta 1-42 is 347 nM.

In turn, `C[C@]1(c2cc(-c3cncc(Cl)c3)c(F)cc2F)N=C(N)CO[C@H]1C(F)(F)F` [Compound 255] registered a melting point of 141.4 °C. Besides, the IC50 in series [1] is 447 nM. In addition, the IC50 with Abeta total was 347 nM. Also, the IC50 in the series with Abeta 1-42 was 398 nM.

As to `COc1cnc(C(=O)Nc2ccc(F)c([C@]3(C4CC4)COCC(N)=N3)c2)cn1` [Compound 299], the melting point was found to be 196.4 °C. In addition, in series [1], the IC50 was 170 nM. Also, the IC50 in the series with Abeta total is 21.4 nM. The IC50 with Abeta 1-42 was 24 nM.

In turn, `CCC1(c2cc(NC(=O)c3cnc(OC)cn3)ccc2F)N=C(N)COC1(F)C(F)(F)F` (stereo not drawn) [Compound 301] displayed a melting point of 196.44 °C. Moreover, the IC50 in series [1] is 81.3 nM. Moreover, in the series with Abeta total, the “Cellular αLisa assay in SKNBE2 cells Abetatotal pIC50” value came out at 7.17. In addition, in the series on Abeta 1-42, the “Cellular αLisa assay in SKNBE2 cells Abeta 42 pIC50” value amounted to 7.14.

Turning to `CCC1(c2cc(-c3cncnc3)ccc2F)N=C(N)COC1(F)C(F)(F)F` (stereo not drawn) [Compound 303], the melting point amounted to 204.89 °C. In series [1], the IC50 is 1820 nM. In the series on Abeta total, the “Cellular αLisa assay in SKNBE2 cells Abetatotal pIC50” value is on record as 5.76. For the same molecule, the “Cellular αLisa assay in SKNBE2 cells Abeta 42 pIC50” value with Abeta 1-42 worked out at 5.73.

Regarding `COc1ccc(C(=O)Nc2ccc(F)c([C@@]3(C)N=C(N)CO[C@@]3(F)C(F)(F)F)c2)nc1` [Compound 305], the melting point worked out at 123.8 °C. Moreover, the IC50 in series [1] is 41.7 nM. Moreover, in the series with Abeta total, the IC50 was 25.1 nM. The IC50 with Abeta 1-42 was 25.1 nM.

Consider `Cc1cc(Br)cnc1C(=O)Nc1ccc(F)c([C@@]2(C3CC3)N=C(N)CO[C@@H]2F)c1` [Compound 314], for which the melting point was 132.03 °C. The IC50 in series [1] was 55 nM. In the series with Abeta total, the IC50 was 57.5 nM. Besides, the IC50 with Abeta 1-42 is 83.2 nM.

The molecule `C[C@]1(c2cc(-c3cncc(C#N)c3)c(F)cc2F)N=C(N)CO[C@@H]1C(F)(F)F` [Compound 317] returned a melting point of 177.94 °C. The IC50 in series [1] is 2040 nM. The IC50 in the series with Abeta total was 468 nM. Besides, the IC50 in the series with Abeta 1-42 was 550 nM.
